Patent publication US5072038A, “2,3,4,5-tetrahalogenobenzene derivatives” (Bayer Aktiengesellschaft, priority 1984, dated 1991)
In brackets after ≈: the same amount, converted by molar mass. Where a name gives a salt, the structure may show the parent alone. Read-outs that look alike come from different tables or passages of the source.

Experiments:
Assay in all cases: MIC, agar dilution test
Type in all cases: cell-based
Staph. 133 = settings: agar dilution test/isosensitest medium
Source text: (§1) | Agar dilution test/isosensitest medium

E. coli Neumann = settings: Escherichia coli, agar dilution test/isosensitest medium
Source text: as §1

Pseudom. Ellsworth = settings: agar dilution test/isosensitest medium
Source text: as §1

Staph. FK 422 = settings: agar dilution test/isosensitest medium
Source text: as §1

Staph. 1756 = settings: agar dilution test/isosensitest medium
Source text: as §1

E. coli T 7 = settings: Escherichia coli, T7
Source text: as §1

Klebsiella 63 = settings: agar dilution test/isosensitest medium
Source text: as §1

E. coli 445/7 = settings: Escherichia coli, agar dilution test/isosensitest medium
Source text: as §1

Providencia 12052 = settings: agar dilution test/isosensitest medium
Source text: as §1

Klebsiella 6179 = settings: agar dilution test/isosensitest medium
Source text: as §1

Providencia 12012 = settings: agar dilution test/isosensitest medium
Source text: as §1

Proteus 1017 = settings: agar dilution test/isosensitest medium
Source text: as §1

[1] = E. coli T 7, agar dilution test/isosensitest medium, read-out: MIC
[2] = E. coli 445/7 (first MIC table)
[3] = 445/7, E. coli 455/7 (second MIC table)

SMILES | MIC (Staph. 133) [µg/mL] | MIC (E. coli Neumann) [µg/mL] | MIC (Pseudom. Ellsworth) [µg/mL] | MIC (Staph. FK 422) [µg/mL] | MIC (Staph. 1756) [µg/mL] | MIC (E. coli T 7; [1]) [µg/mL] | MIC (Klebsiella 63) [µg/mL] | MIC (E. coli 445/7; [2]) [µg/mL] | MIC (Providencia 12052) [µg/mL] | MIC (Klebsiella 6179) [µg/mL] | MIC (Providencia 12012) [µg/mL] | MIC (Proteus 1017) [µg/mL] | MIC (E. coli T 7) [µg/mL] | MIC (E. coli 445/7; [3]) [µg/mL]
O=C(O)c1cn(C2CC2)c2c(F)c(N3CCNCC3)c(Cl)cc2c1=O [Example 1, 6-chloro-1-cyclopropyl-8-fluoro-1,4-dihydro-4-oxo-7-(1-piperazinyl)-3-quinolinecarboxylic acid] | 0.25 (≈ 0.683 µM) | ≤ 0.015 | 0.06 (≈ 0.164 µM) | 0.25 (≈ 0.683 µM) | 0.25 (≈ 0.683 µM) | ≤ 0.015 | ≤ 0.015 | 4 (≈ 10.9 µM) | 8 (≈ 21.9 µM) | 0.03 (≈ 0.082 µM) | ≤ 0.015 | ≤ 0.015 |  | 
CC1CN(c2c(Cl)cc3c(=O)c(C(=O)O)cn(C4CC4)c3c2F)CCN1 (stereo not drawn) [Example 2] | 0.25 (≈ 0.658 µM) | ≤ 0.015 |  | 0.25 (≈ 0.658 µM) | 0.5 (≈ 1.32 µM) | ≤ 0.015 | 0.03 (≈ 0.079 µM) | 8 (≈ 21.1 µM) | 16 (≈ 42.1 µM) | 0.03 (≈ 0.079 µM) | 0.03 (≈ 0.079 µM) |  |  | 
CCC1CN(c2c(Cl)cc3c(=O)c(C(=O)O)cn(C4CC4)c3c2F)CCN1 (stereo not drawn) [Example 3] | 0.25 (≈ 0.635 µM) | ≤ 0.015 |  | 0.25 (≈ 0.635 µM) | 0.25 (≈ 0.635 µM) | ≤ 0.015 | 0.03 (≈ 0.0762 µM) | 8 (≈ 20.3 µM) | 16 (≈ 40.6 µM) | ≤ 0.015 |  |  |  | 
CC1CN(c2c(Cl)cc3c(=O)c(C(=O)O)cn(C4CC4)c3c2F)CC(C)N1 (stereo not drawn) [Example 5] | 0.5 (≈ 1.27 µM) | ≤ 0.015 |  | 0.25 (≈ 0.635 µM) | 0.5 (≈ 1.27 µM) | ≤ 0.015 | 0.03 (≈ 0.0762 µM) | 8 (≈ 20.3 µM) | 32 (≈ 81.3 µM) | 0.03 (≈ 0.0762 µM) |  |  |  | 
CN1CCN(c2c(Cl)cc3c(=O)c(C(=O)O)cn(C4CC4)c3c2F)CC1 [Example 6] | 0.25 (≈ 0.658 µM) | ≤ 0.015 |  | 0.025 (≈ 0.0658 µM) | 0.5 (≈ 1.32 µM) | ≤ 0.015 | 0.015 (≈ 0.0395 µM) | 4 (≈ 10.5 µM) | 4 (≈ 10.5 µM) | 0.015 (≈ 0.0395 µM) | 0.03 (≈ 0.079 µM) | 0.06 (≈ 0.158 µM) |  | 
O=C(O)c1cn(C2CC2)c2c(F)c(N3CCN(CCO)CC3)c(Cl)cc2c1=O [Example 7] | 0.25 (≈ 0.61 µM) | ≤ 0.015 |  | 0.5 (≈ 1.22 µM) | 0.5 (≈ 1.22 µM) | ≤ 0.015 | 0.06 (≈ 0.146 µM) | 16 (≈ 39 µM) | 16 (≈ 39 µM) | 0.06 (≈ 0.146 µM) |  | 0.125 (≈ 0.305 µM) |  | 
O=C(O)c1cn(C2CC2)c2c(F)c(N3CCNC(C4CCCCC4)C3)c(Cl)cc2c1=O (stereo not drawn) [Example 8] | 0.06 (≈ 0.134 µM) |  |  | 0.06 (≈ 0.134 µM) | 0.06 (≈ 0.134 µM) | ≤ 0.015 |  |  |  |  |  |  |  | 
CCN1CCN(c2c(Cl)cc3c(=O)c(C(=O)O)cn(C4CC4)c3c2F)CC1 [Example 10, 6-chloro-1-cyclopropyl-7-(4-ethyl-1-piperazinyl)-8-fluoro-1,4-dihydro-4-oxo-3-quinolinecarboxylic acid] |  | ≤ 0.015 |  |  |  |  | 0.125 (≈ 0.317 µM) | 16 (≈ 40.6 µM) |  | 0.06 (≈ 0.152 µM) |  |  | 0.025 (≈ 0.0635 µM) | 
CC(=O)CCN1CCN(c2c(Cl)cc3c(=O)c(C(=O)O)cn(C4CC4)c3c2F)CC1 [Example 12, 6-chloro-1-cyclopropyl-8-fluoro-1,4-dihydro-4-oxo-7-[4-(3-oxobutyl)-1-piperazinyl]-3-quinolinecarboxylic acid] | 0.25 (≈ 0.574 µM) | ≤ 0.015 | 0.125 (≈ 0.287 µM) | 0.25 (≈ 0.574 µM) | 0.25 (≈ 0.574 µM) | ≤ 0.015 | ≤ 0.015 |  | 16 (≈ 36.7 µM) | 0.06 (≈ 0.138 µM) | ≤ 0.015 | 0.03 (≈ 0.0688 µM) |  | 8 (≈ 18.4 µM)
CC(=O)CN1CCN(c2c(Cl)cc3c(=O)c(C(=O)O)cn(C4CC4)c3c2F)CC1.Cl [Example 13, 6-chloro-1-cyclopropyl-8-fluoro-1,4-dihydro-4-oxo-7-[4-(2-oxopropyl)-1-piperazinyl]-3-quinolinecarboxylic acid hydrochloride] | 0.25 | ≤ 0.015 | 0.125 | 0.25 | 0.25 | ≤ 0.015 | ≤ 0.015 |  | 16 | 0.06 | ≤ 0.015 | ≤ 0.015 |  | 8
O=C(CN1CCN(c2c(Cl)cc3c(=O)c(C(=O)O)cn(C4CC4)c3c2F)CC1)c1ccccc1 [Example 14, 6-chloro-1-cyclopropyl-8-fluoro-1,4-dihydro-4-oxo-7-[4-(2-oxo-2-phenylethyl)-1-piperazinyl]-3-quinolinecarboxylic acid] |  | ≤ 0.015 |  |  |  | ≤ 0.015 | 0.06 (≈ 0.124 µM) |  | 16 (≈ 33.1 µM) | 0.25 (≈ 0.517 µM) | 0.06 (≈ 0.124 µM) | 0.125 (≈ 0.258 µM) |  | 2 (≈ 4.13 µM)
CC1CN(c2c(Cl)cc3c(=O)c(C(=O)O)cn(C4CC4)c3c2F)CC(C)O1 (stereo not drawn) [Example 17, 6-chloro-1-cyclopropyl-8-fluoro-1,4-dihydro-7-(2,6-dimethyl-4-morpholinyl)-4-oxo-3-quinolinecarboxylic acid] |  |  |  | ≤ 0.015 | ≤ 0.015 |  |  |  |  |  |  |  |  | 
CN1CCN(c2c(F)cc3c(=O)c(C(=O)O)cn(C4CC4)c3c2Cl)CC1 [Example 19, 8-chloro-1-cyclopropyl-6-fluoro-1,4-dihydro-7-(4-methyl-1-piperazinyl)-4-oxo-3-quinolinecarboxylic acid] | 0.06 (≈ 0.158 µM) | ≤ 0.015 | 0.125 (≈ 0.329 µM) | 0.06 (≈ 0.158 µM) | 0.06 (≈ 0.158 µM) | ≤ 0.015 | 0.03 (≈ 0.079 µM) |  | 4 (≈ 10.5 µM) | 0.03 (≈ 0.079 µM) | 0.03 (≈ 0.079 µM) | 0.03 (≈ 0.079 µM) |  | 1 (≈ 2.63 µM)
CC1CN(c2c(F)cc3c(=O)c(C(=O)O)cn(C4CC4)c3c2Cl)CCN1 (stereo not drawn) [Example 20, 8-chloro-1-cyclopropyl-6-fluoro-1,4-dihydro-7-(3-methyl-1-piperazinyl)-4-oxo-3-quinolinecarboxylic acid] | 0.06 (≈ 0.158 µM) | ≤ 0.015 | 0.25 (≈ 0.658 µM) | 0.06 (≈ 0.158 µM) | 0.06 (≈ 0.158 µM) | ≤ 0.015 | ≤ 0.015 |  | 4 (≈ 10.5 µM) | 0.03 (≈ 0.079 µM) | 0.03 (≈ 0.079 µM) | ≤ 0.015 |  | 1 (≈ 2.63 µM)
O=C(O)c1cn(C2CC2)c2c(Cl)c(N3CCNCC3)c(F)cc2c1=O [Example 21, hydrochloride] | 0.06 | ≤ 0.015 |  | 0.125 | 0.125 | ≤ 0.015 | 0.06 |  | 1 | 0.03 | 0.06 | 0.03 |  | 1
CC1CN(c2c(Cl)cc3c(=O)c(C(=O)O)cn(C4CC4)c3c2Cl)CCN1 (stereo not drawn) [Example 22, 6,8-dichloro-1-cyclopropyl-1,4-dihydro-7-(3-methyl-1-piperazinyl)-4-oxo-3-quinolinecarboxylic acid] | 0.125 (≈ 0.315 µM) | ≤ 0.015 |  | 0.125 (≈ 0.315 µM) | 0.125 (≈ 0.315 µM) | ≤ 0.015 | 0.03 (≈ 0.0757 µM) |  | 2 (≈ 5.05 µM) | 0.06 (≈ 0.151 µM) | 0.06 (≈ 0.151 µM) | 0.06 (≈ 0.151 µM) |  | 2 (≈ 5.05 µM)
CCn1cc(C(=O)O)c(=O)c2cc(F)c(N3CCNCC3)cc21 [Norfloxacin, 1-ethyl-6-fluoro-1,4-dihydro-4-oxo-7-(1-piperazinyl)-3-quinolinecarboxylicacid, reference compound] | 0.5 (≈ 1.57 µM) | 0.06 (≈ 0.188 µM) | 0.125 (≈ 0.391 µM) | 0.5 (≈ 1.57 µM) | 1 (≈ 3.13 µM) | 0.03 (≈ 0.0939 µM) | 0.125 (≈ 0.391 µM) |  | 64 (≈ 200 µM) | 0.25 (≈ 0.783 µM) | 0.03 (≈ 0.0939 µM) | 0.03 (≈ 0.0939 µM) |  | 16 (≈ 50.1 µM)
